From US20240209445A1, “A CONTINUOUS METRIC TO MEASURE ENDOTYPE AND CORTICOSTEROID INTERACTION IN SEPTIC SHOCK” (CHILDREN'S HOSPITAL MEDICAL CENTER, priority 2021, published 2024)

Assay: Validation in adult cohort of the VANISH trial randomized to hydrocortisone or placebo (n=97)
Assay type: in vivo, human
Details: adult VANISH subset; controlled for illness severity using the APACHE score; lower Z values
Experimental: The model was also tested using a publicly available transcriptomic data set from the Vasopressin vs. Norepinephrine as Initial Therapy for Septic Shock (VANISH) trial (9, 23). The VANISH trial compared the efficacy of vasopressin to norepinephrine as initial vasopressor therapy for septic shock among adults. Patients who reached a prespecified dose of either vasopressor were further randomized to receive hydrocortisone or placebo. Details of the procedures for assigning the cohort randomized to hydrocortisone or placebo to pediatric endotypes A or B were previously described (10, 15).
The findings above were further validated using a subset of adult subjects from the VANISH trial who were randomized to placebo or hydrocortisone, and for whom there existed publicly available transcriptomic data (n=97). […] The model supports that separation between groups treated with hydrocortisone and those treated with placebo occurs as the Z value decreases.

SMILES: C[C@]12CCC(=O)C=C1CC[C@@H]1[C@@H]2[C@@H](O)C[C@@]2(C)[C@H]1CC[C@]2(O)C(=O)CO [hydrocortisone]
- Odds of death at 28 days by hydrocortisone exposure and Z value: no hydrocortisone exposure and lower Z values tended to have lower odds of death at 28 days
